Results: US20120108585A1, “BENZOXAZOLES, BENZTHIAZOLES AND RELATED ANALOGS AS SIRTUIN MODULATORS” (Sirtris Pharmaceuticals, Inc., priority 2008, published 2012)

Molecular target: T1, SIRT1 (Homo sapiens, UniProt Q96EB6)
T1 sequence (Q96EB6 1-747): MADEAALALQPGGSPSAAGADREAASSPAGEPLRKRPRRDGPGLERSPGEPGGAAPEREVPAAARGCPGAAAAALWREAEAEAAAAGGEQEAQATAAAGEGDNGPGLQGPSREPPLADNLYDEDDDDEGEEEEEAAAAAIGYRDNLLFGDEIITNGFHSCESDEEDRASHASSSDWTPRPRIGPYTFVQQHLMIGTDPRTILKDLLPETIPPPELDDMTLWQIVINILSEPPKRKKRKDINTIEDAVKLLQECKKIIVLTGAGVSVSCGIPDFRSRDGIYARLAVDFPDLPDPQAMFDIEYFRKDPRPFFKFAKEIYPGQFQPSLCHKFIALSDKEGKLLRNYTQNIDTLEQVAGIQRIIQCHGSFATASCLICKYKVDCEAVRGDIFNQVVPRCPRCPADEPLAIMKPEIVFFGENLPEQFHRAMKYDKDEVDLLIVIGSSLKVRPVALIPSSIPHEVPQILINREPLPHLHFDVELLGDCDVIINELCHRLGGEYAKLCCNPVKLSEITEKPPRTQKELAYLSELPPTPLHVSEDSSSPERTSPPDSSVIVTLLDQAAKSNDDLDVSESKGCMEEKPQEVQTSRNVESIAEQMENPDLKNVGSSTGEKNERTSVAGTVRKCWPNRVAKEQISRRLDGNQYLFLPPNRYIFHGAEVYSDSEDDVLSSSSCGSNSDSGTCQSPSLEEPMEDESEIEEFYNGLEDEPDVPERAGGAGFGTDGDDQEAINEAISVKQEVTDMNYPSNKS
Experiment: mass spectrometry based assay to identify modulators of SIRT1 activity (deacetylation of p53-based acetylated peptide)
Assay type: biochemical
Conditions: SIRT1 activation, 10 nM SIRT1, 0.5 μM peptide substrate, 120 μM βNAD+, 25 minutes at 25° C.; for Emax: 25 min, read-out: % Fold Act. (percent maximum fold activation)
From the text: A mass spectrometry based assay was used to identify modulators of SIRT1 activity. The mass spectrometry based assay utilizes a peptide having 20 amino acid residues as follows: Ac-EE-K(biotin)-GQSTSSHSK(Ac)NleSTEG-K(5TMR)-EE-NH2 (SEQ ID NO: 1) wherein K(Ac) is an acetylated lysine residue and Nle is a norleucine. The peptide is labeled with the fluorophore 5TMR (excitation 540 nm/emission 580 nm) at the C-terminus. The sequence of the peptide substrate is based on p53 with several modifications. In addition, the methionine residue naturally present in the sequence was replaced with the norleucine because the methionine may be susceptible to oxidation during synthesis and purification.
The mass spectrometry assay is conducted as follows: 0.5 μM peptide substrate and 120 μM βNAD^+ is incubated with 10 nM SIRT1 for 25 minutes at 25° C. in a reaction buffer (50 mM Tris-acetate pH 8, 137 mM NaCl, 2.7 mM KCl, 1 mM MgCl2, 5 mM DTT, 0.05% BSA). Test compounds may be added to the reaction as described above. The SirT1 gene is cloned into a T7-promoter containing vector and transformed into BL21(DE3). After the 25 minute incubation with SIRT1, 10 μL of 10% formic acid is added to stop the reaction. Reactions are sealed and frozen for later mass spec analysis. Determination of the mass of the substrate peptide allows for precise determination of the degree of acetylation (i.e. starting material) as compared to deacetylated peptide (product).
A control for inhibition of sirtuin activity is conducted by adding 1 μL of 500 mM nicotinamide as a negative control at the start of the reaction (e.g., permits determination of maximum sirtuin inhibition). A control for activation of sirtuin activity is conducted using 10 nM of sirtuin protein, with 1 μL of DMSO in place of compound, to determine the amount of deacetylation of the substrate at a given timepoint within the linear range of the assay. This timepoint is the same as that used for test compounds and, within the linear range, the endpoint represents a change in velocity.
For the above assay, SIRT1 protein was expressed and purified as follows. The SirT1 gene was cloned into a T7-promoter containing vector and transformed into BL21(DE3). The protein was expressed by induction with 1 mM IPTG as an N-terminal His-tag fusion protein at 18° C. overnight and harvested at 30,000×g. Cells were lysed with lysozyme in lysis buffer (50 mM Tris-HCl, 2 mM Tris[2-carboxyethyl]phosphine (TCEP), 10 μM ZnCl2, 200 mM NaCl) and further treated with sonication for 10 min for complete lysis. The protein was purified over a Ni-NTA column (Amersham) and fractions containing pure protein were pooled, concentrated and run over a sizing column (Sephadex S200 26/60 global). The peak containing soluble protein was collected and run on an Ion-exchange column (MonoQ). Gradient elution (200 mM-500 mM NaCl) yielded pure protein. This protein was concentrated and dialyzed against dialysis buffer (20 mM Tris-HCl, 2 mM TCEP) overnight. The protein was aliquoted and frozen at −80° C. until further use.
Sirtuin modulating compounds that activated SIRT1 were identified using the assay described above and are shown below in Table 1. The EC1-5 values for the activating compounds are represented by A (EC1-5<1.0 uM), B (EC1-5 1-25 uM), C (EC1-5>25 uM). The percent maximum fold activation is represented by A (Fold activation>150%) or B (Fold Activation<150%).

SMILES | Emax [%] | EC1.5
O=C(Nc1nccs1)c1cccc2nc(-c3ccc(F)cc3C(F)(F)F)oc12 [Compound 130] | < 150 | B (EC1-5 1-25 uM)
O=C(Nc1ccccn1)c1cccc2nc(-c3cc(F)ccc3C(F)(F)F)oc12 [Compound 134] | < 150 | B (EC1-5 1-25 uM)
O=C(Nc1nc(CN2CCOCC2)cs1)c1cccc2nc(-c3ccccc3OC(F)(F)F)oc12 [Compound 119] | > 150 | B (EC1-5 1-25 uM)
O=C(Nc1cccnc1)c1cccc2nc(-c3cccc(C(F)(F)F)c3)oc12 [Compound 108] | > 150 | B (EC1-5 1-25 uM)
O=C(Nc1cccc2oc(-c3ccccc3)nc12)c1cnccn1 [Compound 101] | < 150 | C (EC1-5>25 uM)
O=C(Nc1nccs1)c1cccc2sc(-c3cccnc3)nc12 [Compound 128] | < 150 | C (EC1-5>25 uM)
O=C(Nc1cccc2oc(-c3cccc(C(F)(F)F)c3)nc12)c1cscn1 [Compound 102] | < 150 | C (EC1-5>25 uM)
O=C(Nc1cccc2oc(-c3cccc(OC(F)(F)F)c3)nc12)c1cnccn1 [Compound 105] | < 150 | C (EC1-5>25 uM)
O=C(Nc1nccs1)c1cccc2oc(-c3ccc(F)cc3C(F)(F)F)nc12 [Compound 143] | < 150 | B (EC1-5 1-25 uM)
O=C(Nc1cccc(CN2CCOCC2)n1)c1cccc2oc(-c3cc(F)ccc3C(F)(F)F)nc12 [Compound 150] | > 150 | A (EC1-5<1.0 uM)
O=C(Nc1nccs1)c1cccc2nc(-c3ccccc3OC(F)(F)F)oc12 [Compound 117] | < 150 | B (EC1-5 1-25 uM)
O=C(Nc1nc(CN2CCOCC2)cs1)c1cccc2oc(-c3ccccc3C(F)(F)F)nc12 [Compound 139] | > 150 | A (EC1-5<1.0 uM)
O=C(Nc1cccnc1)c1cccc2sc(-c3cccc(OC(F)(F)F)c3)nc12 [Compound 116] | < 150 | C (EC1-5>25 uM)
O=C(Nc1cccc2oc(-c3cccc(OC(F)(F)F)c3)nc12)c1cscn1 [Compound 104, N-(2-(3-(trifluoromethoxy)phenyl)benzo[d]oxazol-4-yl)thiazole-4-carboxamide] | < 150 | C (EC1-5>25 uM)
